According to the supplement of paper PMC10307832:

Assays:
Test in all cases: relative viability (nuclei count vs DMSO), 5 days (fraction); higher = more cells survive
KIN001-266 + Bortezomib = compound: CCN1CCC(CC1)N2C=C(N=N2)CNC3=CC4=C(C(=CN=C4C(=C3)Cl)C#N)NC5=CC(=C(C=C5)F)Cl [KIN001-266] + CC(C)C[C@H](NC(=O)[C@H](Cc1ccccc1)NC(=O)c1cnccn1)B(O)O [Bortezomib] (partner 0.002 µM)
Summary of the method: (§1)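 For relative viability, nuclei counts in treated wells were divided by those in vehicle wells. Lung cancer cell lines had been pin-tool dosed in 1536-well plates the day after seeding and cultured for 5 days, then fixed and stained in one step (final 0.05% Triton X-100, 1% formaldehyde, 1 ug/ml Hoechst) and imaged at 4×. Doses were one drug alone or a fixed anchor-drug dose plus five library-drug doses (not always all listed) in √10 steps, and values are duplicate-plate medians.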

KIN001-266 + Palbociclib = compound: CCN1CCC(CC1)N2C=C(N=N2)CNC3=CC4=C(C(=CN=C4C(=C3)Cl)C#N)NC5=CC(=C(C=C5)F)Cl [KIN001-266] + CC(=O)c1c(C)c2cnc(Nc3ccc(N4CCNCC4)cn3)nc2n(C2CCCC2)c1=O [Palbociclib] (partner 0.5 µM)
Summary of the method: as §1

KIN001-266 + Foretinib = compound: CCN1CCC(CC1)N2C=C(N=N2)CNC3=CC4=C(C(=CN=C4C(=C3)Cl)C#N)NC5=CC(=C(C=C5)F)Cl [KIN001-266] + COc1cc2c(Oc3ccc(NC(=O)C4(C(=O)Nc5ccc(F)cc5)CC4)cc3F)ccnc2cc1OCCCN1CCOCC1 [Foretinib] (partner 0.25 µM)
Summary of the method: as §1

KIN001-266 + Pictilisib = compound: CCN1CCC(CC1)N2C=C(N=N2)CNC3=CC4=C(C(=CN=C4C(=C3)Cl)C#N)NC5=CC(=C(C=C5)F)Cl [KIN001-266] + CS(=O)(=O)N1CCN(Cc2cc3nc(-c4cccc5[nH]ncc45)nc(N4CCOCC4)c3s2)CC1 [Pictilisib] (partner 1 µM)
Summary of the method: as §1

Cell Line | relative viability (KIN001-266 + Bortezomib; first compound 0.08 µM) | relative viability (KIN001-266 + Bortezomib; first compound 0.253 µM) | relative viability (KIN001-266 + Bortezomib; first compound 0.8 µM) | relative viability (KIN001-266 + Bortezomib; first compound 2.53 µM) | relative viability (KIN001-266 + Bortezomib; first compound 8 µM) | relative viability (KIN001-266 + Palbociclib; first compound 0.08 µM) | relative viability (KIN001-266 + Palbociclib; first compound 0.253 µM) | relative viability (KIN001-266 + Palbociclib; first compound 0.8 µM) | relative viability (KIN001-266 + Palbociclib; first compound 2.53 µM) | relative viability (KIN001-266 + Palbociclib; first compound 8 µM) | relative viability (KIN001-266 + Foretinib; first compound 0.08 µM) | relative viability (KIN001-266 + Foretinib; first compound 0.253 µM) | relative viability (KIN001-266 + Foretinib; first compound 0.8 µM) | relative viability (KIN001-266 + Foretinib; first compound 2.53 µM) | relative viability (KIN001-266 + Foretinib; first compound 8 µM) | relative viability (KIN001-266 + Pictilisib; first compound 0.08 µM) | relative viability (KIN001-266 + Pictilisib; first compound 0.253 µM) | relative viability (KIN001-266 + Pictilisib; first compound 0.8 µM) | relative viability (KIN001-266 + Pictilisib; first compound 2.53 µM) | relative viability (KIN001-266 + Pictilisib; first compound 8 µM)
201T | 1.09 | 0.941 | 1.08 | 1.06 | 1.16 | 0.342 | 0.366 | 0.35 | 0.361 | 0.359 | 1.07 | 1.11 | 1.13 | 1.12 | 1.14 | 0.768 | 0.746 | 0.662 | 0.64 | 0.721
A-427 | 1.06 | 1 | 0.955 | 0.982 | 0.817 | 0.511 | 0.524 | 0.5 | 0.493 | 0.526 | 1.06 | 1.07 | 0.983 | 0.992 | 0.971 | 0.778 | 0.735 | 0.582 | 0.72 | 0.754
ABC-1 | 0.269 | 0.344 | 0.346 | 0.288 | 0.274 | 0.789 | 0.799 | 0.598 | 0.65 | 0.558 | 1.02 | 1.12 | 1.1 | 1.08 | 0.873 | 0.864 | 0.927 | 0.926 | 0.65 | 0.547
BEN | 0.899 | 0.698 | 0.885 | 0.909 | 0.921 | 0.439 | 0.495 | 0.511 | 0.467 | 0.507 | 0.708 | 0.88 | 0.755 | 0.407 | 0.691 | 0.632 | 0.615 | 0.589 | 0.54 | 0.632
CAL-12T | 1.04 | 0.976 | – | 1.12 | 0.97 | 0.44 | 0.492 | 0.438 | 0.359 | 0.419 | 1.21 | 1.01 | 1.02 | 0.974 | 1.11 | 0.698 | 0.539 | – | 0.31 | 0.47
COR-L23 | 0.966 | 0.994 | 0.927 | 0.857 | 0.777 | 0.334 | 0.28 | 0.281 | 0.294 | 0.22 | 0.905 | 0.944 | 0.869 | 0.933 | 0.776 | 0.88 | 0.749 | 0.697 | 0.649 | 0.478
COR-L 105 | 0.886 | 0.884 | 0.719 | 0.768 | 0.602 | 0.399 | 0.386 | 0.376 | 0.407 | 0.436 | 0.795 | 1.09 | 0.92 | 0.915 | 0.758 | 0.422 | 0.44 | 0.352 | 0.452 | 0.43
Calu-6 | 1.11 | 1.11 | 1.05 | 0.948 | 0.682 | – | – | – | – | – | 0.921 | 0.861 | 0.925 | 0.917 | 0.609 | 0.933 | 0.9 | 1.08 | 0.805 | 0.765
ChaGo-K-1 | 1.11 | 1.17 | – | 1.09 | 1.1 | 0.949 | 1.01 | 0.851 | 0.84 | 0.428 | 0.904 | 0.989 | 0.756 | 0.793 | 0.871 | 1.04 | 0.852 | – | 0.844 | 0.703
EKVX | 1.12 | 1 | 1.01 | 1.06 | 1.01 | 0.402 | 0.406 | 0.403 | 0.391 | 0.367 | 0.858 | 0.744 | 0.642 | 0.781 | 0.624 | 0.386 | 0.417 | 0.425 | 0.405 | 0.4
EMC-BAC-2 | 1.07 | 1.11 | 1.02 | 1.04 | 1.04 | 0.54 | 0.581 | 0.523 | 0.562 | 0.561 | 1.13 | 1.09 | 0.972 | 1.03 | 1 | 0.551 | 0.55 | 0.505 | 0.523 | 0.513
EPLC-272H | 1.19 | 0.949 | 0.751 | 0.839 | 0.605 | 0.348 | 0.354 | 0.275 | 0.307 | 0.312 | 0.777 | 0.763 | 0.728 | 0.636 | 0.208 | 0.349 | 0.336 | 0.305 | 0.265 | 0.289
H3255 | 0.899 | 0.775 | 0.838 | 0.788 | 0.699 | 0.336 | 0.3 | 0.307 | 0.311 | 0.282 | 0.801 | 0.862 | 0.797 | 0.957 | 0.725 | 0.523 | 0.518 | 0.49 | 0.516 | 0.341
HARA | 1.07 | 1.09 | 1.16 | 1.07 | 1.04 | 0.237 | 0.27 | 0.261 | 0.237 | 0.18 | 0.814 | 0.884 | 0.878 | 0.858 | 0.821 | 0.515 | 0.466 | 0.507 | 0.444 | 0.291
